Results on two compounds are retold here after US20200155650A1, “Combination treatment of NAFLD and NASH” (CymaBay Therapeutics, Inc., priority 2018, published 2020).

One may read the EC50 as the concentration at which the effect is half-maximal.

The test system of test [1] is subjects with liver biopsy-proven NASH. Kind of test: Example 3, clinical, single agent seladelpar in biopsy-proven NASH. As to conditions: 10, 20, and 50 mg/day for 52 weeks. It counts as in vivo, human. The procedure:
One hundred seventy-five subjects with liver biopsy-proven NASH are treated with doses of 10, 20, and 50 mg/day, or placebo (2:2:2:1 randomization) for 52 weeks. Subjects are permitted their usual other medications (e.g. antidiabetic medications such as metformin or […]) but not glitazones, PPAR agonists, OCA, or similar medications. […] The primary efficacy outcome is the change in baseline in liver fat content at 12 weeks, as measured by magnetic resonance imaging-derived proton density fat fraction (MRI-PDFF). Other outcome measures include histological improvement in NASH and fibrosis, assessed by comparing liver biopsy samples at baseline and at 52 weeks after the start of dosing; MRI-PDFF at 26 and 52 weeks; and measurements of total cholesterol, HDL-C, LDL-C, VLDL-C, TGs, apoB, and liver transaminases. The subjects also maintain health diaries, which are reviewed at each visit.

Test [2] concerns Alms1 mutant (fozlfoz) mice. The conditions noted are these: 10 mg/Kg by gavage for 8 weeks, cited from earlier work.
For test [3], the target named is T1, PPARα (Homo sapiens, UniProt Q07869).
T1 sequence (Q07869 1-468): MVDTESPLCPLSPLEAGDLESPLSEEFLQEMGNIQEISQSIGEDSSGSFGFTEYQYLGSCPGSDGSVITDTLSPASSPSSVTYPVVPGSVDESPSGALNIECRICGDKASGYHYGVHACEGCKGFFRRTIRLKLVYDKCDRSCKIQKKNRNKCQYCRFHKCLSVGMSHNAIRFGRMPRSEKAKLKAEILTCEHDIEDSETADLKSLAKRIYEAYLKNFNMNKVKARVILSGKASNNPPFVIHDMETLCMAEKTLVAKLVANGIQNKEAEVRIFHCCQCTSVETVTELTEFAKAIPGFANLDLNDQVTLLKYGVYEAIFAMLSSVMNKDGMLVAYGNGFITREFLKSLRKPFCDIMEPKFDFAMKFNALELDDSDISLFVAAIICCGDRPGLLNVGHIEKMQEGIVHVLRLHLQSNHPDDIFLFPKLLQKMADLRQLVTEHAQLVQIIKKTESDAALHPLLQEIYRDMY
The conditions noted are these: cited from earlier work.

For the compound `CCO[C@H](COc1ccc(C(F)(F)F)cc1)CSc1ccc(OCC(=O)O)c(C)c1` [Seladelpar, (R)-2-(4-((2-ethoxy-3-(4-(trifluoromethyl)phenoxy)propyl)-sulfanyl)-2-methylphenoxy)acetic acid], the “improvement in disease (MRI-PDFF, liver biopsy, NAS score)” value in test [1] is “dose-related improvement in their disease”. The “mean nonalcoholic fatty liver disease activity score (NAS)” value in test [2] (vehicle 6.9) is 3.13. The “reduction of serum alanine aminotransferase” value in test [2] (vehicle 300-600 U/L) is recorded as 50%. Further, in test [2], the “hyperglycemia, hyperinsulinemia, and glucose disposal” value is “normalized”.

Take `CSc1ccc(C(=O)/C=C/c2cc(C)c(OC(C)(C)C(=O)O)c(C)c2)cc1` [elafibranor]: the 50% effective concentration (EC50) in test [3] is 6 nM.
